Test results from PubChem BioAssay (NCI).
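All cell lines were grown in 96-well plates and treated with compound for 48 hours. GI50 marks 50% less growth. TGI is the concentration that stops growth completely.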

Columns and labels:
Assay in all cases: DTP human tumour cell line panel, 48 h
NCI-H23 lung = system: NCI-H23 lung
NCI-H522 lung = system: NCI-H522 lung
K-562 leukemia = system: K-562 leukemia
NCI/ADR-RES ovarian = system: NCI/ADR-RES ovarian
SK-OV-3 ovarian = system: SK-OV-3 ovarian
HOP-62 NSCLC = system: HOP-62 NSCLC
SF-539 CNS = system: SF-539 CNS
RXF 393 renal = system: RXF 393 renal
COLO 205 colon = system: COLO 205 colon
MCF7 breast = system: MCF7 breast
MALME-3M melanoma = system: MALME-3M melanoma
PC-3 prostate = system: PC-3 prostate
EKVX NSCLC = system: EKVX NSCLC
HCT-116 colon = system: HCT-116 colon
SW-620 colon = system: SW-620 colon
UACC-62 melanoma = system: UACC-62 melanoma
SR leukemia = system: SR leukemia
OVCAR-4 ovarian = system: OVCAR-4 ovarian
UO-31 renal = system: UO-31 renal
LOX IMVI melanoma = system: LOX IMVI melanoma
HS 578T breast = system: HS 578T breast
MDA-MB-231 breast = system: MDA-MB-231 breast
SK-MEL-28 melanoma = system: SK-MEL-28 melanoma
TK-10 renal = system: TK-10 renal
ACHN renal = system: ACHN renal
SNB-19 CNS = system: SNB-19 CNS
T-47D breast = system: T-47D breast
M14 melanoma = system: M14 melanoma
NCI-H226 lung = system: NCI-H226 lung
OVCAR-8 ovarian = system: OVCAR-8 ovarian
MOLT-4 leukemia = system: MOLT-4 leukemia
HCT-15 colon = system: HCT-15 colon
UACC-257 melanoma = system: UACC-257 melanoma
MDA-MB-435 = system: MDA-MB-435
SNB-75 CNS = system: SNB-75 CNS
SF-295 CNS = system: SF-295 CNS
A498 renal = system: A498 renal
NCI-H460 lung = system: NCI-H460 lung
BT-549 breast = system: BT-549 breast
HT29 colon = system: HT29 colon
786-0 renal = system: 786-0 renal
HL-60(TB) leukemia = system: HL-60(TB) leukemia
SK-MEL-2 melanoma = system: SK-MEL-2 melanoma
KM12 colon = system: KM12 colon
A549 NSCLC = system: A549 NSCLC
HCC-2998 colon = system: HCC-2998 colon
CCRF-CEM leukemia = system: CCRF-CEM leukemia
DU-145 prostate = system: DU-145 prostate
SF-268 CNS = system: SF-268 CNS
U251 CNS = system: U251 CNS
IGROV1 ovarian = system: IGROV1 ovarian
SK-MEL-5 melanoma = system: SK-MEL-5 melanoma
OVCAR-5 ovarian = system: OVCAR-5 ovarian
HOP-92 NSCLC = system: HOP-92 NSCLC
OVCAR-3 ovarian = system: OVCAR-3 ovarian
CAKI-1 renal = system: CAKI-1 renal

## O=c1c2c3c(sc2nc(N/N=C/c2ccc(Br)cc2)n1Cc1ccccc1)CCCC3
NCI-H23 lung
  GI50: > 100 µM
  TGI: > 100 µM
NCI-H522 lung
  GI50: 7.21 µM
  TGI: > 100 µM
K-562 leukemia
  GI50: 4.1 µM
  TGI: > 100 µM
NCI/ADR-RES ovarian
  GI50: > 100 µM
  TGI: > 100 µM
SK-OV-3 ovarian
  GI50: > 100 µM
  TGI: > 100 µM
HOP-62 NSCLC
  GI50: 7.7 µM
  TGI: > 100 µM
SF-539 CNS
  GI50: 10.8 µM
  TGI: > 100 µM
RXF 393 renal
  GI50: 5.98 µM
  TGI: > 100 µM
COLO 205 colon
  GI50: 5.88 µM
  TGI: > 100 µM
MCF7 breast
  GI50: 5.63 µM
  TGI: > 100 µM
MALME-3M melanoma
  GI50: 42.7 µM
  TGI: > 100 µM
PC-3 prostate
  GI50: 6.64 µM
  TGI: > 100 µM
EKVX NSCLC
  GI50: 7.76 µM
  TGI: > 100 µM
HCT-116 colon
  GI50: 5.66 µM
  TGI: > 100 µM
SW-620 colon
  GI50: 46.2 µM
  TGI: > 100 µM
UACC-62 melanoma
  GI50: > 100 µM
  TGI: > 100 µM
SR leukemia
  GI50: 4.98 µM
  TGI: > 100 µM
OVCAR-4 ovarian
  GI50: 9.67 µM
  TGI: > 100 µM
UO-31 renal
  GI50: 86.6 µM
  TGI: > 100 µM
LOX IMVI melanoma
  GI50: 19.3 µM
  TGI: > 100 µM
HS 578T breast
  GI50: > 100 µM
  TGI: > 100 µM
MDA-MB-231 breast
  GI50: 48 µM
  TGI: > 100 µM
SK-MEL-28 melanoma
  GI50: > 100 µM
  TGI: > 100 µM
TK-10 renal
  GI50: 39.9 µM
  TGI: > 100 µM
ACHN renal
  GI50: > 100 µM
  TGI: > 100 µM
SNB-19 CNS
  GI50: 41.8 µM
  TGI: > 100 µM
T-47D breast
  GI50: 21.2 µM
  TGI: > 100 µM
M14 melanoma
  GI50: 9.15 µM
  TGI: > 100 µM
NCI-H226 lung
  GI50: 37.4 µM
  TGI: > 100 µM
OVCAR-8 ovarian
  GI50: 47 µM
  TGI: > 100 µM
MOLT-4 leukemia
  GI50: 3.81 µM
  TGI: > 100 µM
HCT-15 colon
  GI50: 8.98 µM
  TGI: > 100 µM
UACC-257 melanoma
  GI50: > 100 µM
  TGI: > 100 µM
MDA-MB-435
  GI50: 44.1 µM
  TGI: > 100 µM
SNB-75 CNS
  GI50: 3.33 µM
  TGI: > 100 µM
SF-295 CNS
  GI50: 5.75 µM
  TGI: > 100 µM
A498 renal
  GI50: > 100 µM
  TGI: > 100 µM
NCI-H460 lung
  GI50: 10.2 µM
  TGI: > 100 µM
BT-549 breast
  GI50: 8.02 µM
  TGI: > 100 µM
HT29 colon
  GI50: > 100 µM
  TGI: > 100 µM
786-0 renal
  GI50: 3.07 µM
  TGI: > 100 µM
HL-60(TB) leukemia
  GI50: 9.26 µM
  TGI: > 100 µM
SK-MEL-2 melanoma
  GI50: 6.08 µM
  TGI: > 100 µM
KM12 colon
  GI50: > 100 µM
  TGI: > 100 µM
A549 NSCLC
  GI50: 46.2 µM
  TGI: > 100 µM
HCC-2998 colon
  GI50: > 100 µM
  TGI: > 100 µM
CCRF-CEM leukemia
  GI50: 7.23 µM
  TGI: > 100 µM
DU-145 prostate
  GI50: 90.9 µM
  TGI: > 100 µM
SF-268 CNS
  GI50: 14.1 µM
  TGI: > 100 µM
U251 CNS
  GI50: 7.83 µM
  TGI: > 100 µM
IGROV1 ovarian
  GI50: 58.7 µM
  TGI: > 100 µM
SK-MEL-5 melanoma
  GI50: 5.88 µM
  TGI: > 100 µM
OVCAR-5 ovarian
  GI50: > 100 µM
  TGI: > 100 µM
HOP-92 NSCLC
  GI50: 8.63 µM
  TGI: > 100 µM
OVCAR-3 ovarian
  GI50: 32.5 µM
  TGI: > 100 µM
CAKI-1 renal
  GI50: 74.3 µM
  TGI: > 100 µM
